Source: patent EP4728880A1, “CORDYCEPS SINENSIS FERMENTATION COMPOSITION” (Hangzhou Zhongmeihuadong Pharmaceutical Jiangdong Co., Ltd, priority 2023, dated 2024)
Where two headings read alike, the source gives them in different places.

Tests used:
[1] = Hydroxyl radical scavenging rate (Fenton colorimetric method); format: biochemical
Description: IV. Detection of hydroxyl radical scavenging rate (Fenton colorimetric method)
H2O2/Fe^2+ produces a hydroxyl radical through a Fenton reaction, Fe^2+ is oxidized into Fe^3+, and red phenanthroline-Fe^2+ is oxidized into colorless phenanthroline-Fe^3+, so that the maximum absorption peak of the phenanthroline-Fe^2+ disappears at 536 nm. The absorbance change at 530-540 nm may be determined by a spectrophotometer. Thus, content change of the hydroxyl radical can be calculated, that is, the hydroxyl radical scavenging rate or scavenging capacity of the sample can be calculated.
• 1. 0.2 g of mycelia powder was weighed; 2 mL of purified water was added; the mycelia powder and the water were uniformly mixed; the mixture was placed at a room temperature for standing for 4 h; the solution was centrifuged at 10000 rpm for 10 min; and the supernatant was taken for later use. • 2. Other samples served as reference solutions.
The spectrophotometer was started for preheating for 30 min; the wavelength was adjusted to 536 nm; and the purified water was subjected to zero setting.
A blank tube, an undamaged tube, a damaged tube, a control tube and a determination tube were set according to the following table; the solutions were added in sequence; and the solutions were uniformly mixed and placed in a water bath at 37°C for 1 h.
(§1) Calculation: To-be-tested sample•OH scavenging rate (%)=[(A3-A3')-(A2-A0)]/(A1-A2)×100% • V. Detection methods of adenosine, mannitol, total amino acid content and water were conducted according to the detection method under the fermented Cordyceps sinensis. mycelia powder item in accordance with National Drug Standards. • VI. Detection method of tyrosinase inhibition rate • 1. Preparation of a solution: • (1) Preparation of a PBS: 3.4022 g of potassium dihydrogen phosphate and 5.7055 g of potassium phosphate dibasic trihydrate were respectively weighed and then dissolved with an appropriate amount of distilled water; the volume was fixed in a 1000 mL volumetric flask; the solution was shaken up to obtain the PBS having a pH value of 6.81 and a concentration of 0.05 mol·L-1, and the PBS was kept in a dark place at 4°C in a refrigerator. • (2) Preparation of an L-Dopa solution: 0.0395 g of L-Dopa was precisely weighed and dissolved with the prepared PBS; the solution was transferred into a 100 mL volumetric flask; the volume was fixed; the solution was shaken up and subjected to ultrasonic treatment to obtain the L-Dopa solution of 2 mmol·L-1. The solution was used when prepared. • (3) Preparation of a TYR ([…]) solution: 25 KU of the TYR was totally dissolved with a small amount of PBS; the solution was repeatedly washed for several times; the washing liquid was transferred into the […] volumetric flask; the volume was fixed with the PBS; the liquid was shaken up to obtain a TYR solution of 250 U·mL-1; then the mother solution was diluted to 125 U·mL-1; and the solution was preserved at -20°C in the refrigerator for later use. • 2. Preparation of samples: 250 mg/ml of an erythritol mother solution: 2.5 g of erythritol was weighed, and 10 ml of purified water was added; 250 mg/ml of a mannitol mother solution: 7.5 g of mannitol was weighed, 30 ml of purified water was added, the mixture was heated and dissolved; and the solution was diluted into the needed concentration according to each reaction system and then added into the detection system. • 3. Determination of the sample on TYR inhibitory activity

[2] = cited from earlier work
[3] = in water, at 25°C; cited from earlier work
[4] = cited from earlier work; remark: listed apart in the source
tyrosinase = experiment: Tyrosinase inhibition rate (L-Dopa substrate, absorbance at 475 nm); format: biochemical; conditions: combination of both amounts, negative = activation rate
Description: as §1
The reaction system was shown as Table 4.2. […] A calculation formula of the inhibition rate was as follows: when the calculated result was negative, the absolute value of the negative was an activation rate.
Inhibition rate = ((A1−A2)−(A3−A4))/(A1 −A2) × 100% [formula] • A1: absorbance of a reaction solution with TYR instead of the sample determined at 475 nm; • A2: absorbance of a reaction solution without the sample nor the TYR determined at 475 nm; • A3: absorbance of a reaction solution with both the sample and the TYR determined at 475 nm; • A4: absorbance of a reaction solution with the sample instead of the TYR determined at 475 nm.

[5] = EGT 0.4 ml (0.02 mg/ml), Adenosine 0.4 ml (0.02 mg/ml), combination 0.2 ml (0.02 mg/ml) + 0.2 ml (0.02 mg/ml)
[6] = Erythritol 12.5 mg (6.25 mg/ml), Adenosine 0.15 ml (0.75 mg/ml), combination of both amounts
[7] = Erythritol 12.5 mg (6.25 mg/ml), Adenosine 0.15 ml (2.5 mg/ml), combination of both amounts
[8] = Erythritol 0.75 mg (3.75 mg/ml), Mannitol 2.5 mg (12.5 mg/ml), combination of both amounts
[9] = Erythritol 1.5 mg (7.5 mg/ml), Mannitol 2.5 mg (12.5 mg/ml), combination of both amounts
[10] = Erythritol 1.75 mg (8.75 mg/ml), Mannitol 2.5 mg (12.5 mg/ml), combination of both amounts
[11] = Erythritol 2 mg (10 mg/ml), Mannitol 2.5 mg (12.5 mg/ml), combination of both amounts
[12] = Erythritol 2.5 mg (12.5 mg/ml), Mannitol 2.5 mg (12.5 mg/ml), combination of both amounts
[13] = Erythritol 0.75 mg (3.75 mg/ml), Mannitol 1.25 mg (6.25 mg/ml)
[14] = Erythritol 1.25 mg (6.25 mg/ml), Mannitol 1.25 mg (6.25 mg/ml)
[15] = Erythritol 1.75 mg (8.75 mg/ml), Mannitol 2.5 mg (12.5 mg/ml)

Tyrosinase inhibition rate (%) (tyrosinase; [13]) | Tyrosinase inhibition rate (%) (tyrosinase; [14]) | Tyrosinase inhibition rate (%) (tyrosinase; [15]) | SMILES | OH clearance rate (%) [1, 5] | OH clearance rate (%) [1, 6] | OH clearance rate (%) [1, 7] | OH clearance rate (%) ([1]; EGT 0.4 ml (0.05 mg/ml), Erythritol 0.4 ml (0.05 mg/ml), combination 0.2 ml (0.05 mg/ml) + 0.2 ml (0.05 mg/ml)) | OH clearance rate (%) [1, 8] | OH clearance rate (%) [1, 9] | OH clearance rate (%) [1, 10] | OH clearance rate (%) [1, 11] | OH clearance rate (%) [1, 12] | absorbed in small intestine via passive diffusion ([2]; after ingestion by a human body) | absorbed erythritol oxidized into erythrose in blood ([2]; human body, share of the absorbed amount) | solubility [3] | intestinal tolerance ([4]; children aged 4-6 years, beverages containing 15 g) | intestinal tolerance ([4]; healthy volunteers aged 18-24 years, 20-35 g in a liquid form) | intestinal tolerance ([4]; healthy volunteers aged 18-24 years, intake of 50 g)
– | – | – | Nc1ncnc2c1ncn2[C@@H]1O[C@H](CO)[C@@H](O)[C@H]1O [Adenosine, adenosine] | 0.00% | 10.57% | 7.17% | – | – | – | – | – | – | – | – | – | – | – | –
– | – | – | C[N+](C)(C)[C@@H](Cc1c[nH]c(=S)[nH]1)C(=O)[O-] [EGT, Ergothioneine] | -5.70% | – | – | 2.08% | – | – | – | – | – | – | – | – | – | – | –
-1.06% | 1.71% | 6.39% | OCC(O)C(O)CO (centres unmarked) [Erythritol, 1,2,3,4-butanetetraol] | – | -8.17% | -5.8% | – | 5.14% | 2.44% | 11.76% | 20.15% | 11.45% | 80-90% | 5-10% | 37% | the diarrhea and/or a severe intestinal symptom is not observed | good intestinal tolerance without any adverse symptom | symptoms such as diarrhea and nausea were observed
3.62% | 2.51% | 2.51% | OC[C@@H](O)[C@@H](O)[C@H](O)[C@H](O)CO [Mannitol, D-mannitol] | – | – | – | – | 17.91% | 7.48% | 7.48% | 7.48% | 7.48% | – | – | – | – | – | –
